Reference: US4677100A, “Cephalosporin derivatives” (Banyu Pharmaceutical Co., Ltd., priority 1984, dated 1987)
Values after ≈ are worked out from the molar mass of the structure shown.

How the values were obtained:
P. cepacia 23 = experiment: MIC, agar plate dilution method; assay type: cell-based, Pseudomonas cepacia; conditions: for MIC: Burkholderia cepacia, P. cepacia 23, 10^6 CFU/ml, Sensitivity Disk Agar, read-out: Minimum Inhibitory Concentration; for antibacterial activity relative to the compound of Reference Example: Pseudomonas cepacia 23
Protocol: (§1) The minimum inhibitory concentrations (MIC: μg/ml) of the compounds of the present invention against various microorganisms were measured by an agar plate dilution method (inoculum size: 10^6 CFU/ml) by using Sensitivity Disk Agar (Nissui) in comparison with Cefotaxime and Ceftazidime as comparative compounds.

P. maltophilia IID 1275 = experiment: MIC, agar plate dilution method; assay type: cell-based, Pseudomonas maltophilia; conditions: for MIC: Stenotrophomonas maltophilia, IID1275, P. maltophilia IID 1275, 10^6 CFU/ml, Sensitivity Disk Agar, read-out: Minimum Inhibitory Concentration
Protocol: as §1

P. aeruginosa AK109 = experiment: MIC, agar plate dilution method; assay type: cell-based, Pseudomonas aeruginosa; conditions: for antibacterial activity relative to the compound of Reference Example: Pseudomonas aeruginosa AK109; for MIC: Pseudomonas aeruginosa, P. aeruginosa AK109, 10^6 CFU/ml, Sensitivity Disk Agar, read-out: Minimum Inhibitory Concentration
Protocol: as §1

P. aeruginosa AKR17 = experiment: MIC, agar plate dilution method; assay type: cell-based, Pseudomonas aeruginosa; conditions: for antibacterial activity relative to the compound of Reference Example: Pseudomonas aeruginosa AKR-17, resistant to all cephalosporins including Ceftazidime; for MIC: Pseudomonas aeruginosa, P. aeruginosa AKR17, 10^6 CFU/ml, Sensitivity Disk Agar, read-out: Minimum Inhibitory Concentration
Protocol: as §1

E. coli ML1410/Rte16 = experiment: MIC, agar plate dilution method; assay type: cell-based; conditions: Escherichia coli, ML1410/RTE16, read-out: Minimum Inhibitory Concentration
Protocol: as §1

E. coli W3630/Rms213 = experiment: MIC, agar plate dilution method; assay type: cell-based; conditions: Escherichia coli, W3630/RMS213, read-out: Minimum Inhibitory Concentration
Protocol: as §1

K. pneumoniae No. 42 = experiment: MIC, agar plate dilution method; assay type: cell-based; conditions: Klebsiella pneumoniae; K. pneumoniae No. 42; 10^6 CFU/ml; Sensitivity Disk Agar; read-out: Minimum Inhibitory Concentration
Protocol: as §1

E. cloaceae Nek 39 = experiment: MIC, agar plate dilution method; assay type: cell-based; conditions: E. cloaceae Nek 39; 10^6 CFU/ml; Sensitivity Disk Agar; read-out: Minimum Inhibitory Concentration
Protocol: as §1

P. mirabilis JY10 = experiment: MIC, agar plate dilution method; assay type: cell-based; conditions: Proteus mirabilis; P. mirabilis JY10; 10^6 CFU/ml; Sensitivity Disk Agar; read-out: Minimum Inhibitory Concentration
Protocol: as §1

S. marcescens No. 16-2 = experiment: MIC, agar plate dilution method; assay type: cell-based; conditions: Serratia marcescens, NO.162; S. marcescens No. 16-2; 10^6 CFU/ml; Sensitivity Disk Agar; read-out: Minimum Inhibitory Concentration
Protocol: as §1

E. coli NIHJJC-2 = experiment: MIC, agar plate dilution method; assay type: cell-based; conditions: Escherichia coli, NIHJJC2; E. coli NIHJJC-2; 10^6 CFU/ml; Sensitivity Disk Agar; read-out: Minimum Inhibitory Concentration
Protocol: as §1

E. coli CSH = experiment: MIC, agar plate dilution method; assay type: cell-based; conditions: Escherichia coli, read-out: Minimum Inhibitory Concentration
Protocol: as §1

S. aureus JS-1 = experiment: MIC, agar plate dilution method; assay type: cell-based; conditions: Staphylococcus aureus, JS1; S. aureus JS-1; 10^6 CFU/ml; Sensitivity Disk Agar; read-out: Minimum Inhibitory Concentration
Protocol: as §1

C. freundii No. 7 = experiment: MIC, agar plate dilution method; assay type: cell-based; conditions: Citrobacter freundii; C. freundii No. 7; 10^6 CFU/ml; Sensitivity Disk Agar; read-out: Minimum Inhibitory Concentration
Protocol: as §1

E. coli W3630/Rms212 = experiment: MIC, agar plate dilution method; assay type: cell-based; conditions: Escherichia coli, W3630/RMS212, read-out: Minimum Inhibitory Concentration
Protocol: as §1

E. coli C/Rms149 = experiment: MIC, agar plate dilution method; assay type: cell-based; conditions: Escherichia coli, read-out: Minimum Inhibitory Concentration
Protocol: as §1

A. calcoaceticus No. 14 = experiment: MIC, agar plate dilution method; assay type: cell-based; conditions: Acinetobacter calcoaceticus; for MIC: A. calcoaceticus No. 14, 10^6 CFU/ml, Sensitivity Disk Agar, read-out: Minimum Inhibitory Concentration
Protocol: as §1

P. vulgaris OB1043 = experiment: MIC, agar plate dilution method; assay type: cell-based; conditions: Proteus vulgaris; P. vulgaris OB1043; 10^6 CFU/ml; Sensitivity Disk Agar; read-out: Minimum Inhibitory Concentration
Protocol: as §1

P. vulgaris No. 33 = experiment: MIC, agar plate dilution method; assay type: cell-based; conditions: Proteus vulgaris; P. vulgaris No. 33; 10^6 CFU/ml; Sensitivity Disk Agar; read-out: Minimum Inhibitory Concentration
Protocol: as §1

E. coli CSH2 = experiment: MIC, agar plate dilution method; assay type: cell-based; conditions: Escherichia coli, 10^6 CFU/ml, Sensitivity Disk Agar, read-out: Minimum Inhibitory Concentration
Protocol: as §1

S. aureus NIHJJC-1 = experiment: MIC, agar plate dilution method; assay type: cell-based; conditions: Staphylococcus aureus, NIHJJC1; S. aureus NIHJJC-1; 10^6 CFU/ml; Sensitivity Disk Agar; read-out: Minimum Inhibitory Concentration
Protocol: as §1

[1] = system: Gram-positive bacteria and Gram-negative bacteria; experiment: antibacterial activity, general statement; assay type: cell-based; conditions: sensitive and resistant bacteria
Protocol: as §1

CCON=C(C(=O)NC1C(=O)N2C(C(=O)[O-])=C(C[N+]3(C)Cc4cc(O)c(O)cc4C3)CSC12)c1csc(N)n1 (stereo not shown) [Ex. 5-D, 7-[(Z)-2-(2-aminothiazol-4-yl)-2-ethoxyiminoacetamido]-3-(5,6-dihydroxy-2-methyl-2-isoindolinium) methyl-3-cephem-4-carboxylate]
MIC (P. cepacia 23): 0.1 µg/mL (≈ 0.174 µM) | antibacterial activity relative to the compound of Reference Example (P. cepacia 23): at least 32 times | MIC (P. maltophilia IID 1275): 25 µg/mL (≈ 43.5 µM) | antibacterial activity relative to the compound of Reference Example (P. aeruginosa AK109): at least 16 times | MIC (P. aeruginosa AK109): 0.1 µg/mL (≈ 0.174 µM) | antibacterial activity relative to the compound of Reference Example (P. aeruginosa AKR17): at least 32 times | MIC (P. aeruginosa AKR17): 0.39 µg/mL (≈ 0.679 µM) | MIC (E. coli ML1410/Rte16): 0.1 µg/mL (≈ 0.174 µM) | MIC (E. coli W3630/Rms213): 0.2 µg/mL (≈ 0.348 µM) | MIC (K. pneumoniae No. 42): 0.1 µg/mL (≈ 0.174 µM) | MIC (E. cloaceae Nek 39): ≤ 0.05 µg/mL | MIC (P. mirabilis JY10): 0.2 µg/mL (≈ 0.348 µM) | MIC (S. marcescens No. 16-2): 3.12 µg/mL (≈ 5.43 µM) | MIC (E. coli NIHJJC-2): ≤ 0.05 µg/mL | MIC (E. coli CSH): 0.2 µg/mL (≈ 0.348 µM) | MIC (S. aureus JS-1): 12.5 µg/mL (≈ 21.8 µM) | MIC (C. freundii No. 7): 6.25 µg/mL (≈ 10.9 µM) | MIC (E. coli W3630/Rms212): ≤ 0.05 µg/mL | MIC (E. coli C/Rms149): 0.1 µg/mL (≈ 0.174 µM) | antibacterial activity relative to the compound of Reference Example (A. calcoaceticus No. 14): at least 32 times | MIC (A. calcoaceticus No. 14): 0.2 µg/mL (≈ 0.348 µM) | MIC (P. vulgaris OB1043): 0.78 µg/mL (≈ 1.36 µM) | MIC (P. vulgaris No. 33): 0.2 µg/mL (≈ 0.348 µM) | MIC (E. coli CSH2): 0.1 µg/mL (≈ 0.174 µM) | MIC (S. aureus NIHJJC-1): 3.12 µg/mL (≈ 5.43 µM) | antibacterial activity (in words) [1]: particularly strong antibacterial activities

C[N+]1(CC2=C(C(=O)[O-])N3C(=O)C(NC(=O)C(=NOC4(C(=O)O)CCC4)c4csc(N)n4)C3SC2)Cc2cc(O)c(O)cc2C1 (stereo not shown) [Ex. 11-F, 7-[(Z)-2-(2-aminothiazol-4-yl)-2-(1-carboxy-1-cyclobutoxyimino)acetamido]-3-(5,6-dihydroxy-2-methyl-2-isoindolinium)methyl-3-cephem-4-carboxylate]
MIC (P. cepacia 23): ≤ 0.05 µg/mL | antibacterial activity relative to the compound of Reference Example (P. cepacia 23): at least 32 times | antibacterial activity relative to the compound of Reference Example (P. maltophilia IID 1275; Pseudomonas maltophilia resistant to all cephalosporins): at least twice as strong | MIC (P. maltophilia IID 1275): 1.56 µg/mL (≈ 2.42 µM) | antibacterial activity relative to the compound of Reference Example (P. aeruginosa AK109): at least 16 times | MIC (P. aeruginosa AK109): ≤ 0.05 µg/mL | antibacterial activity relative to the compound of Reference Example (P. aeruginosa AKR17): at least 32 times | MIC (P. aeruginosa AKR17): 0.1 µg/mL (≈ 0.155 µM) | MIC (E. coli ML1410/Rte16): ≤ 0.05 µg/mL | MIC (E. coli W3630/Rms213): ≤ 0.05 µg/mL | MIC (K. pneumoniae No. 42): ≤ 0.05 µg/mL | MIC (E. cloaceae Nek 39): ≤ 0.05 µg/mL | MIC (P. mirabilis JY10): ≤ 0.05 µg/mL | MIC (S. marcescens No. 16-2): 0.2 µg/mL (≈ 0.31 µM) | MIC (E. coli NIHJJC-2): ≤ 0.05 µg/mL | MIC (E. coli CSH): ≤ 0.05 µg/mL | MIC (S. aureus JS-1): > 25 µg/mL | MIC (C. freundii No. 7): 0.78 µg/mL (≈ 1.21 µM) | MIC (E. coli W3630/Rms212): ≤ 0.05 µg/mL | MIC (E. coli C/Rms149): ≤ 0.05 µg/mL | antibacterial activity relative to the compound of Reference Example (A. calcoaceticus No. 14): at least 32 times | MIC (A. calcoaceticus No. 14): 0.1 µg/mL (≈ 0.155 µM) | MIC (P. vulgaris OB1043): ≤ 0.05 µg/mL | MIC (P. vulgaris No. 33): ≤ 0.05 µg/mL | MIC (E. coli CSH2): ≤ 0.05 µg/mL | MIC (S. aureus NIHJJC-1): 25 µg/mL (≈ 38.8 µM)

CO/N=C(\C(=O)NC1C(=O)N2C(C(=O)[O-])=C(C[N+]3(C)Cc4ccccc4C3)CSC12)c1csc(N)n1 (stereo not shown) [Reference Ex., 7-[(Z)-2-(2-aminothiazol-4-yl)-2-methoxyiminoacetamido]-3-(2-methyl-2-isoindolinium)methyl-3-cephem-4-carboxylate, reference compound]
MIC (P. cepacia 23): 12.5 µg/mL (≈ 23.6 µM) | MIC (P. maltophilia IID 1275): > 25 µg/mL | MIC (P. aeruginosa AK109): 3.12 µg/mL (≈ 5.9 µM) | MIC (P. aeruginosa AKR17): > 25 µg/mL | MIC (E. coli ML1410/Rte16): 0.05 µg/mL (≈ 0.0946 µM) | MIC (E. coli W3630/Rms213): 0.78 µg/mL (≈ 1.48 µM) | MIC (K. pneumoniae No. 42): 0.2 µg/mL (≈ 0.378 µM) | MIC (E. cloaceae Nek 39): 0.78 µg/mL (≈ 1.48 µM) | MIC (P. mirabilis JY10): 0.39 µg/mL (≈ 0.738 µM) | MIC (S. marcescens No. 16-2): 12.5 µg/mL (≈ 23.6 µM) | MIC (E. coli NIHJJC-2): ≤ 0.05 µg/mL | MIC (E. coli CSH): 0.39 µg/mL (≈ 0.738 µM) | MIC (S. aureus JS-1): 3.12 µg/mL (≈ 5.9 µM) | MIC (C. freundii No. 7): 1.56 µg/mL (≈ 2.95 µM) | MIC (E. coli W3630/Rms212): 0.2 µg/mL (≈ 0.378 µM) | MIC (E. coli C/Rms149): 0.1 µg/mL (≈ 0.189 µM) | MIC (A. calcoaceticus No. 14): 25 µg/mL (≈ 47.3 µM) | MIC (P. vulgaris OB1043): 0.78 µg/mL (≈ 1.48 µM) | MIC (P. vulgaris No. 33): 0.2 µg/mL (≈ 0.378 µM) | MIC (E. coli CSH2): ≤ 0.05 µg/mL | MIC (S. aureus NIHJJC-1): 0.39 µg/mL (≈ 0.738 µM)
